# Measured values: patent EP3056202A1, “BENZOPYRROLIDONE DERIVATIVES POSSESSING ANTIVIRAL AND ANTICANCER PROPERTIES” (Max-Planck-Gesellschaft zur Förderung der Wissenschaften …, priority 2015, dated 2016)
# Columns and labels:
# [1] = system: HCT-116 human colon carcinoma cell line; experiment: In vitro growth inhibition of colon carcinoma cells, HCT-116 (CellTiter-Glo); format: cell-based; settings: 72 hours incubation, read-out: HCT116 EC50
# [2] = system: A549 human lung carcinoma cells; experiment: Cell-based EC50 determination, A549 cells (CellTiter-Glo cell viability); settings: A549, 24 h, read-out: A549 EC50 24h
# Protocol: A549 human lung carcinoma cells were cultured in RPMI 1640 medium (Sigma) supplemented with 10% fetal bovine serum (Sigma) and Antibiotic-Antimycotic (Sigma) in tissue culture flasks at 37°C in a humidified 5% CO2 atmosphere. Cells were routinely assayed for mycoplasma contamination.
# Two thousand cells were plated in 384-well tissue culture plates, and treated after 24 hours with a 10-point dilution series of the compounds (1.5 nM-30 uM), using the vehicle, DMSO as control. Cells were incubated for 24 hours after which the relative cell density was determined by CellTiter-Glo Luminescent Cell Viability Assay (Promega). This method determines the number of metabolically active cells in the culture based on quantitation of the ATP present. The luminescent signal was measured with an Analyst GT multimode reader (Molecular Devices). […]
# physchem = format: physicochemical; settings: kinetic from dmso stock
# Protocol: Samples were diluted in DMSO (control), phosphate buffer pH = 7.4 and pH = 2.0, from 5mM stock solutions (solved in DMSO), with a 120 µM final concentration. The samples were incubated for 24 hours at room temperature followed by 30 minutes centrifugation at 3700 rpm. 40 µl of the supernatants were injected into HPLC (Waters 2795 Alliance HPLC equipped with Waters 996 PDA Detector (HPLC column: Waters XBridge, RP C18, 3.5 µm, 4.6 mm x 50 mm; gradient MeCN/H2O, containing 0.1% HCOOH: 5% MeCN (0.5 min), 5% to 95% MeCN (5 min), 95% MeCN (0.5 min); flow rate: 2.0 ml/min)) and the AUC values (measured on sample specific wavelength) of the buffered samples were divided by the AUC values (same wavelength as buffered samples') of the DMSO control samples. Table 3: Solubility in water for several compounds according to general formula (I)
# [3] = system: HKE3 human colon carcinoma cell line; experiment: In vitro growth inhibition of colon carcinoma cells, HKE3 (CellTiter-Glo); format: cell-based; settings: 72 hours incubation
# human Clk1 kinase = biological target: T1, human Clk1 kinase (Homo sapiens, UniProt P49759); experiment: In vitro Clk1 assay (IMAP fluorescence polarization); format: biochemical; settings: 0.45 µM ATP
# T1 construct: Each reaction consisted of 4 nM enzyme: Clk1 kinase domain
# Protocol: The activity of the compounds described in the present invention can be determined by the following kinase assay, which measures the phosphorylation of a fluorescently-labeled peptide by human Clk1 kinase by fluorescent polarization using a commercially available IMAP Screening Express Assay Kit (Molecular Devices).
# Clk1 kinase assays were performed in low protein binding 384-well plates (Corning). Test compounds were diluted in 100% DMSO to 5 mM stock concentration and then further dilutions were made in H2O or 100% DMSO to desirable concentrations.
# Each reaction consisted of 4 nM enzyme: Clk1 kinase domain, 400 nM TAMRA-AFRREWSPGKEAKK-NH2 (Genecust), 0.45 µM ATP (Sigma) and kinase buffer: 20 mM TRIS pH 8, 1 mM DTT, 0.4 mM MgCl2, 0.4 mM MnCl2, 0.01 V/V% Tween20 (all reagents from Sigma-Aldrich)
# (§1) For each reaction, 4 or 6 µl containing TAMRA-peptide, ATP and kinase buffer were combined with 2 µl diluted compound in H2O or 0.02 µl compound in 100% DMSO. The kinase reaction was started by the addition of 2 µl diluted enzyme. The reaction was allowed to run for 1 hour at room temperature. The reaction was stopped by adding 15 µl IMAP beads (1:600 beads in progressive (80 % buffer A, 20% buffer B) 1x buffer). After an additional hour, fluorescent polarization (Ex: 550-10 nm, Em: 590-10 nm, Dich: 561 nm) was measured using an Analyst GT (Molecular Devices).
# human Ack1 kinase = human Ack1 kinase (Homo sapiens, UniProt Q07912); experiment: In vitro Ack1 assay (TranScreener ADP2 FP, generation of ADP); format: biochemical; settings: 12.5 uM compound; 3.5 µM ATP; read-out: Ack1 inh% @12.5 uM
# Protocol: The activity of the compounds described in the present invention can be determined by the following kinase assay, which measures the generation of ADP by human Ack1 kinase by fluorescent polarization using a commercially available TranScreener ADP2 FP Assay Kit (BellBrook Labs).
# Ack1 kinase assays were performed in low protein binding 384-well plates (Corning). Test compounds were diluted in 100% DMSO to 5 mM stock concentration and then further dilutions were made in H2O or 100% DMSO to desirable concentrations.
# Each reaction consisted of 5 nM enzyme: Ack1 kinase, Poly Glu-Tyr (4:1) (Sigma), 3.5 µM ATP and kinase buffer: 20 mM HEPES pH7.5, 1 mM DTT, 2 mM MgCl2, 0.4 mM MnCl2, 0.01 V/V% Tween20 (all reagents from Sigma-Aldrich)
# For each reaction, 4 or 6 µl containing Poly Glu-Tyr (4:1), ATP and kinase buffer were combined with 2 µl diluted compound in H2O or 0.02 µl compound in 100% DMSO. The kinase reaction was started by the addition of 2 µl diluted enzyme. The reaction was allowed to run for 1 hour at room temperature. The reaction was stopped by addition of 8 µl ADP detection mixture (1 x) (1 x Detection buffer + 4.78 µg/ml ADP2 Ab + 4 nM ADP Alexa633 Tracer). After an additional hour, fluorescent polarization (Ex: 630-35 nm, Em: 680-30 nm, Dich: 650 nm) was measured using an Analyst GT (Molecular Devices).
# human Akt1 kinase = human Akt1 kinase (Homo sapiens, UniProt P31749); experiment: In vitro Akt1 assay (IMAP fluorescence polarization, phosphorylation of TAMRA-peptide); format: biochemical; settings: 40 µM ATP
# Protocol: The inhibition of Akt1 by the compounds described in the present invention were determined measuring the phosphorylation of a fluorescently-labeled peptide (TAMRA-peptide) by human Akt1 kinase by fluorescent polarization using a commercially available IMAP Screening Express Assay Kit (Molecular Devices).
# Akt1 kinase assays were performed in low protein binding 384-well plates (Corning). Test compounds were diluted in 100% DMSO to 5 mM stock concentration and then further dilutions were made in H2O or 100% DMSO to desirable concentrations.
# Each reaction consisted of 5 nM enzyme: Akt1 kinase, 400 nM TAMRA-peptide (5-TAMRA-GRTGRRNSI-COOH; Genecust), 40 µM ATP and kinase buffer: 20 mM MES pH6, 1 mM DTT, 10 mM MgCl2, 2 mM MnCl2, 0.01 V/V% TritonX (all reagents from Sigma-Aldrich).
# as §1, with “(1:400” for “(1:600”, “(75%” for “(80 %”, “25%” for “20%”
# [4] = system: HepG2 hepatoblastomaderived cell line; experiment: In vitro growth inhibition, HepG2 (CellTiter-Glo); format: cell-based; settings: Homo sapiens, 72 hours incubation
# [5] = system: H1 N1 influenza virus strain A/WSN/33; experiment: microbe, parasite or virus in culture; format: cell-based; settings: 36 h, read-out: Influenza replication IC50
# Chain of human Akt1 kinase (P31749 whole entry): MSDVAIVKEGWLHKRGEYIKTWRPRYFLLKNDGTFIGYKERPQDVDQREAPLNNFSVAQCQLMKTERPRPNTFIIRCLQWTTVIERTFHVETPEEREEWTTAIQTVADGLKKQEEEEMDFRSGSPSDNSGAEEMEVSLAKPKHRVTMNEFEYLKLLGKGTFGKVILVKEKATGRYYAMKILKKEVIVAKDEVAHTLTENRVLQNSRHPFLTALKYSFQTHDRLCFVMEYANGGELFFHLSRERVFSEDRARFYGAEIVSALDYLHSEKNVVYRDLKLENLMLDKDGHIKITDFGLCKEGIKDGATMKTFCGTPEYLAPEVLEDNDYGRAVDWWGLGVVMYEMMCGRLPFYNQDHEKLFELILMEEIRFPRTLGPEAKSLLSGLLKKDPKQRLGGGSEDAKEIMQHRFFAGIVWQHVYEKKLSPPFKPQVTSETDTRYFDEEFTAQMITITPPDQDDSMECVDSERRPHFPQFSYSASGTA
# T1 sequence (P49759 161-477 limits assumed): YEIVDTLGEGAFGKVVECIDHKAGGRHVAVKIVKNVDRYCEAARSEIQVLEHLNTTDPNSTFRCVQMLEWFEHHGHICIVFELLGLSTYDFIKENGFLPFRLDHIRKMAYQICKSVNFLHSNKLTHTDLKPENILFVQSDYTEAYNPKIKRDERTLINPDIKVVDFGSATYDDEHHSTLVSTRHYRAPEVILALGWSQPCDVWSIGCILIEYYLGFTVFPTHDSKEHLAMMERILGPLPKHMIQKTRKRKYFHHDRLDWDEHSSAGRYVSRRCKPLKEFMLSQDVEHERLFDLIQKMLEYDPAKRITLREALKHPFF
# Chain of human Ack1 kinase (Q07912 whole entry): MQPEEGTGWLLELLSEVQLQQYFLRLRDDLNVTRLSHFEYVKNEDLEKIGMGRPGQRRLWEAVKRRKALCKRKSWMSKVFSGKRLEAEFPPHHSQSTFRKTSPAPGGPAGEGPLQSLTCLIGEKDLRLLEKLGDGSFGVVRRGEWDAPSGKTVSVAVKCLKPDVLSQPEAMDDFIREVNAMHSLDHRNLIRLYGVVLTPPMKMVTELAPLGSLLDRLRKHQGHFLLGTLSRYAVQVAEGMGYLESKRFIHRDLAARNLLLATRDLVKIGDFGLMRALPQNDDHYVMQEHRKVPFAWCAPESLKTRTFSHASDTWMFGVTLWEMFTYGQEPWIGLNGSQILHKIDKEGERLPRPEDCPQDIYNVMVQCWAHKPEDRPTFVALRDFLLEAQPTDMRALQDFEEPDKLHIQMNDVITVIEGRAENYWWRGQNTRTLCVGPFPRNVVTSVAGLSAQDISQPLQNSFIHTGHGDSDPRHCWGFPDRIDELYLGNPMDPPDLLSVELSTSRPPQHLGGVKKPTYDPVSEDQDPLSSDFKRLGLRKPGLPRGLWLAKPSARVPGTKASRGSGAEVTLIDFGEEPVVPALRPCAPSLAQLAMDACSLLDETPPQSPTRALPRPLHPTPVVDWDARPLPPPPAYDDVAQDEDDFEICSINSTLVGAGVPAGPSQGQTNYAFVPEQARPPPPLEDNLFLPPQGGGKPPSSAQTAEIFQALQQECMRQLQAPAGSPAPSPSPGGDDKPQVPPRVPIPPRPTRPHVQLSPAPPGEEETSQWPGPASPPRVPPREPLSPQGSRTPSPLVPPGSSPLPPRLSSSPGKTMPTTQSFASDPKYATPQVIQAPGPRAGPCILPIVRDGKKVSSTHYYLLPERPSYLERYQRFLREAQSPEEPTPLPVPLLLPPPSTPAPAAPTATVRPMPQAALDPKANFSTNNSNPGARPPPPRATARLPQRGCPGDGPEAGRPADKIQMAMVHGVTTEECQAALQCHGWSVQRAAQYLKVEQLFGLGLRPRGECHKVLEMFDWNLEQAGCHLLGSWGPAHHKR
structure (smiles),measurement,setting,value
"C[C@H](NC(=O)c1ccc2c(c1)/C(=C(/Nc1ccc(CN3CCCCC3)cc1)c1ccccc1)C(=O)N2)c1ccccc1 [Compound 30, (3Z)-2-oxo-N-[(1S)-1-phenylethyl]-3-(phenyl{[4-(piperidin-1-ylmethyl)phenyl]amino}methylene)indoline-5-carboxamide]",EC50,[1],10 nM
same,EC50,[2],5980 nM
same,solubility at 24 h,"physchem; pH 2, aqueous buffer",110 to 120 µM
same,solubility at 24 h,"physchem; pH 7.4, aqueous buffer",< 10 µM
same,EC50,[3],10 nM
same,IC50,human Clk1 kinase,10 nM
same,inhibition at 12.5 µM,human Ack1 kinase,80.5%
same,inhibition at 12.5 µM,"human Akt1 kinase; 12.5 uM compound, read-out: Akt1 inh% @12.5 uM",93%
same,IC50,human Akt1 kinase,1300 nM
same,EC50,[4],580 nM
same,IC50,[5],< 10 nM
